Reference: publication PMC7663272, “Discovery of Tricyclic Pyranochromenone as Novel Bruton’s Tyrosine Kinase Inhibitors with In Vivo Antirheumatic Activity” (International Journal of Molecular Sciences, 2020)

What was measured:
TXK = target: T1, TXK (Homo sapiens, UniProt P42681); assay: HotSpot kinase enzymatic assay, TXK; format: biochemical
T1 construct: purchased Reaction Biology Corporation
T1 sequence (P42681 1-527): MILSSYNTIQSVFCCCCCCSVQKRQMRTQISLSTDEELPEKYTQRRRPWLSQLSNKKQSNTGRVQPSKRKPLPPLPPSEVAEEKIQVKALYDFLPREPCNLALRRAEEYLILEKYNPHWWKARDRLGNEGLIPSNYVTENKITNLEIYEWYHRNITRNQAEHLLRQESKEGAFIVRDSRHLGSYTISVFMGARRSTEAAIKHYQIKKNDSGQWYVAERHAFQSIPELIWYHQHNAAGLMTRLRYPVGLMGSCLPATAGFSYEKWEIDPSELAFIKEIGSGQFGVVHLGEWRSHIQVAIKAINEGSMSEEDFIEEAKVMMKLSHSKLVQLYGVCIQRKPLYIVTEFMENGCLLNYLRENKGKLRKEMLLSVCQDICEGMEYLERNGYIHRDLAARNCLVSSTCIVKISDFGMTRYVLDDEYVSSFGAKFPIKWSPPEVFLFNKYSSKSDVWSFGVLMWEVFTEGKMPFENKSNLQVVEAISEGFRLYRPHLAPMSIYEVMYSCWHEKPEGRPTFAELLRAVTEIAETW
Experimental: (§1) Therefore, efforts have focused on developing new compounds with good selectivity profiles. […] Compound 8 was selective against BTK. The biochemical activities of compound 8 differed among TEC family kinases. […] The inhibitory potential of compound 8 differed between members of the EGFR family. […] The inhibitory activity of compound 8 against JAK3 was also low.
(§2) Kinase enzymatic assays for BTK, BMX, TXK, TEC, ITK, EGFR, ERBB2, ERBB4, and JAK3 were performed at Reaction Biology Corporation (www.reactionbiology.com, Malvern, PA, USA) using the HotSpot assay platform. Briefly, specific kinase/substrate pairs and the required cofactors were prepared in a reaction buffer comprising 20 mM HEPES (pH 7.5), 10 mM MgCl2, 1 mM EGTA, 0.02% Brij35, 0.02 mg/mL BSA, 0.1 mM Na3VO4, 2 mM DTT, and 1% DMSO. The compounds were added to the reaction mixture and allowed to incubate. Approximately 20 min later, a mixture of ATP (Sigma-Aldrich, St. Louis, MO, USA) and ^33P ATP (PerkinElmer, Waltham, MA, USA) was added to the reaction mixture at a final concentration of 10 μM. The reactions were performed at room temperature for 120 min; subsequently, the reactions were spotted onto P81 ion exchange filter papers (Whatman Inc., Maidstone, UK). Any unbound phosphate was removed by thoroughly washing the filter papers with 0.75% phosphoric acid. […]

[1] = system: TNF-α production in LPS-stimulated THP-1 cells; assay: LPS-induced TNF-α release in THP-1 cells (ELISA); format: cell-based, human
From the text: BTK plays a critical role in high-affinity IgE receptor (FcεRI) and B cell receptor (BCR) signaling, resulting in the release of proinflammatory cytokines. Therefore, BTK inhibitor treatment can reduce the production of both lymphoid and myeloid cytokines. […] We examined the cellular effects of compound 8 on the production of cytokines IL-6 and TNF-α in LPS-stimulated THP-1 cells. Following treatment with LPS alone or LPS and compound 8, the levels of cytokines secreted by THP-1 cells were assessed (Figure 5). LPS increased the output of proinflammatory cytokines.
THP-1 cells were obtained from the American Type Culture Collection (ATCC, Manassas, VA, USA). The cells were cultured in RPMI-1640 supplemented with 10% FBS, 1% P/S, and 0.05 mM 2-mercaptoethanol and maintained at 37 °C and 5% CO2 in a humidified incubator. Cytokine secretion (hIL-6 and TNF-α) in the culture supernatants of the THP-1 cells was measured using a human cytokine ELISA kit (Abcam). Differentiated THP-1 cells were treated with agents and LPS for 24 h, after which the cell culture media was centrifuged at 2000× g for 10 min to remove debris. Briefly, each sample (50 μL) or standard was mixed with the appropriate detection antibody and incubated for 1 h at room temperature on a plate shaker. […] Subsequently, 100 μL of stop solution was added to each well, and the optical density (OD) was measured at 450 nm. […]

ERBB4 = target: T2, ERBB4 (Homo sapiens, UniProt Q15303); assay: HotSpot kinase enzymatic assay, ERBB4; format: biochemical
T2 construct: purchased Reaction Biology Corporation
Experimental: as §1, §2

CYP3A4 = target: T3, CYP3A4 (Homo sapiens, UniProt P08684); assay: P450-Glo CYP inhibition assay, CYP3A4; format: in vitro ADME
T3 construct: purchased Promega V9920
Experimental: The potential for CYP450 inhibition (CYP1A2, 2C9, 2C19, 2D6, and […]) was assessed using Promega P450-Glo^TM CYP450 assay systems. Luciferin-ME served as the substrate for CYP1A2, and the inhibitor α-naphthoflavone was used as a positive control. Luciferin-H was used as the substrate for CYP2C9, and the inhibitor sulfaphenazole was used as a positive control. Luciferin-H EGE was selected as the substrate for CYP2C19, whereas the inhibitor amitriptyline served as a positive control. Luciferin-ME EGE was used as the substrate for CYP2D6, whereas the inhibitor quinidine served as a positive control. Luciferin-BE was used as the substrate for CYP3A4, whereas the inhibitor ketoconazole was used as a positive control. The assays were performed using the excitation and emission wavelengths recommended by the manufacturer. Briefly, a CYP enzyme and a P450-Glo™ substrate were combined in potassium phosphate (0.1 M KPO4) buffer, with or without a test compound of interest, and […]. The reaction was initiated by adding two volumes of 2 times concentrated NADPH regeneration system. […] Luminescence was subsequently measured using a Tecan Infinite M1000 PRO microplate reader (Tecan Group Ltd., Switzerland). The percent inhibition was calculated relative to that of the positive control at a fixed concentration. […]

T3 sequence (P08684 whole entry): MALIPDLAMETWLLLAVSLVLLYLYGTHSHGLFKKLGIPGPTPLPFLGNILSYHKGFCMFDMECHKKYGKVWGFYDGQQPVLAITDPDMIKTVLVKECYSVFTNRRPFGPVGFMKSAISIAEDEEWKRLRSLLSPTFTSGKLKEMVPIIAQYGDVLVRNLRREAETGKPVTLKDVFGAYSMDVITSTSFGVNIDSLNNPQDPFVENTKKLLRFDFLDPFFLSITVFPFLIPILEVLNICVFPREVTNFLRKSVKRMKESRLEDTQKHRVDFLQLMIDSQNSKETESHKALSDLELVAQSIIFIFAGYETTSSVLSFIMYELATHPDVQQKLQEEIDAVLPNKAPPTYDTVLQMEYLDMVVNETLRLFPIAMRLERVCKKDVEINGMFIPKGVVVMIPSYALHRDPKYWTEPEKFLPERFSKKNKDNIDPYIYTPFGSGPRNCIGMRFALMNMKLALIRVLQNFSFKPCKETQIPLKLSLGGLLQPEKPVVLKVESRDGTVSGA
T2 sequence (Q15303 26-1308): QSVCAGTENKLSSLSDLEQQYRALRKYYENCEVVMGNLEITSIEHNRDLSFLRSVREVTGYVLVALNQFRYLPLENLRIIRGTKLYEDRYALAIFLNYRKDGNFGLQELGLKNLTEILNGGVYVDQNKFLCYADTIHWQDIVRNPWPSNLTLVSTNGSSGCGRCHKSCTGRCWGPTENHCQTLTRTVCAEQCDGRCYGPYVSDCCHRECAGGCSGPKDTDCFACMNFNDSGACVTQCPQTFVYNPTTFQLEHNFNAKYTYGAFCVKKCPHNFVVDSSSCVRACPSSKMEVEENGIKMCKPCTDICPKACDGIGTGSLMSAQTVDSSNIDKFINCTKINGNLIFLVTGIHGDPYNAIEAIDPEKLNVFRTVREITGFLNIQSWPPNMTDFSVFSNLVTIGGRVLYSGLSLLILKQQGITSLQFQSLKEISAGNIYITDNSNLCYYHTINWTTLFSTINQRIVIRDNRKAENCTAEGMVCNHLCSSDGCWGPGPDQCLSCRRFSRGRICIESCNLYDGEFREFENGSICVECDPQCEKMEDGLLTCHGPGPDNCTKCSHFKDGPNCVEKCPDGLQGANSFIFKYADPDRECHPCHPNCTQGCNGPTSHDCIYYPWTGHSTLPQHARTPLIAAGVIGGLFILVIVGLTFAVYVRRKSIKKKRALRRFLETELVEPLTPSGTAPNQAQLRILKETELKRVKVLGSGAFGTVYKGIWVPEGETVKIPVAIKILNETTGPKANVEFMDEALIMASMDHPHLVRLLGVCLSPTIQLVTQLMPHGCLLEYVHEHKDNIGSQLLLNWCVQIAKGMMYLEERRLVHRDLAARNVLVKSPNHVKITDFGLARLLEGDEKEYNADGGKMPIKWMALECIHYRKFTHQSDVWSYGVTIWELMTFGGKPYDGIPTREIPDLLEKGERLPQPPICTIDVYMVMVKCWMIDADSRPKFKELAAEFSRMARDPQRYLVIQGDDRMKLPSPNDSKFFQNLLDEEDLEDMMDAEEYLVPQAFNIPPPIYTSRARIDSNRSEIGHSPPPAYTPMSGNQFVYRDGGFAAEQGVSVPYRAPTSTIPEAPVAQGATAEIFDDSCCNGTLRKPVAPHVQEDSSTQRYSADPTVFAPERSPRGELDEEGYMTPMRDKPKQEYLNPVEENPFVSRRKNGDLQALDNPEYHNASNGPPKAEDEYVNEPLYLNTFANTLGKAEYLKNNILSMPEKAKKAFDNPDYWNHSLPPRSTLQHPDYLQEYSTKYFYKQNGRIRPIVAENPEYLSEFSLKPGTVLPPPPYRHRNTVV

C=CC(=O)O[C@H]1Cc2cc3ccc(=O)oc3cc2OC1(C)C [Compound 8, (7S)-(+)-Acrylic acid, 8,8-dimethyl-2-oxo-6,7-dihydro-2H,8H-pyrano [3,2-g]chromen-7-yl ester]
inhibitory activity against TXK (in words) (TXK): strong inhibitory activity | inhibition at 10 µM (TXK; 10 µM, mean of two experiments): 88.5% | production of TNF-α ([1]; LPS-stimulated differentiated THP-1 cells, 24 h, ELISA): significantly and dose-dependently reduced | inhibitory activity on TNF-α production at 10 μM, compared with ibrutinib ([1]; compound at 10 μM, ibrutinib at 2 μM): comparable with that of ibrutinib at 2 μM | inhibitory activity against ERBB4 (in words) (ERBB4): inactive | CYP3A4 inhibition (in words) (CYP3A4): rarely inhibited | CYP inhibition 3A4 (CYP3A4; % inhibition of human CYP isozymes at 10 μM): <1%
